Peptide text beside a SMILES is read from it.
Tests used:
[1] = Description: Solubilization of the complex with citronellal or citral in ethanol was examined while keeping the amino acid as crystal. The amino acids are different in the crystalline state in the commercial products depending on the kind thereof, so that there were fear that the results might cause fluctuation. Thus, an operation for enlarging the surface in contact with the liquid was added by making the difference due to crystals small as well as making the surface area as much as possible. Specifically, the crystals of the amino acids were ground in a mortar and then sieved through a 100 μm sieve to provide powders, which were used in the present test.
The amount and heating time of citronellal or citral necessary for solubilizing the obtained complex in ethanol, and the dispersed state of the obtained complex in ethanol was confirmed.

[2] = Oil solubilization of Peptide A or B using citral; type: physicochemical; details: 2 mg peptide, 0.1 mL citral, 0.1 mL ethanol; for Solution state in IPM: 80° C. (Peptide A 3 hours, Peptide B 4 hours), 50 μL ethanol solution + 150 μL IPM
Description: The oil solubilization experiment of Peptide A is as follows.
Preparation conditions under heating at 80° C. are as follows.
Preparation conditions under stirring at room temperature are as follows. To 1 mL of a screw-top sample tube were added 2 mg of Peptide B, 0.1 mL of citral and 0.1 mL of ethanol, and the mixture was stirred at room temperature for 22 hours to obtain an ethanol solution.

Row | SMILES | Amount of citral necessary for solubilizing in ethanol [1] | Heating time necessary for solubilizing in ethanol [1] | Amount of citronellal necessary for solubilizing in ethanol [1] | Solution state in IPM [2] | State of ethanol solution ([2]; stirred at room temperature 22 hours)
1 | NC(=O)CC[C@H](N)C(=O)O [Glutamine, L(+)-glutamine] | 700 mg | 24 h |  |  | 
2 | NCCCC[C@H](N)C(=O)O [Lysine, L-(+) lysine] |  | 0.5 h | 700 mg |  | 
3 | N[C@@H](CS)C(=O)O [L-cysteine] |  | 0.33 h | 700 mg |  | 
4 | N[C@@H](Cc1c[nH]c2ccccc12)C(=O)O [Tryptophan, L-tryptophan] |  | 24 h | 700 mg |  | 
5 | CSCC[C@H](NC(=O)[C@H](CC(C)C)NC(=O)[C@@H](NC(=O)[C@H](Cc1ccccc1)NC(=O)CNC(=O)[C@@H](NC(=O)[C@H](CC(C)C)NC(=O)[C@H](CCCCN)NC(=O)[C@H](C)NC(=O)[C@H](Cc1ccccc1)NC(=O)[C@@H](N)CCC(N)=O)[C@@H](C)O)[C@@H](C)O)C(=O)NCC(=O)O [Peptide A] (H-QFAKLTGFTLMG-OH; N-terminus and C-terminus assumed) |  |  |  | pale yellow peptide IPM solution | 
6 | CSCC[C@H](NC(=O)[C@@H](N)CO)C(=O)N[C@@H](CCCCN)C(=O)N[C@H](C(=O)N[C@H](C(=O)N[C@H](C(=O)N[C@@H](C)C(=O)N[C@@H](Cc1ccccc1)C(=O)N[C@@H](CC(N)=O)C(=O)N[C@@H](CCC(N)=O)C(=O)N[C@@H](Cc1ccccc1)C(=O)NCC(=O)N1CCC[C@H]1C(=O)O)C(C)C)[C@@H](C)O)C(C)C [Peptide B] (H-SMKVTVAFNQFGP-OH; N-terminus and C-terminus assumed) |  |  |  | pale yellow peptide IPM solution | yellow gel-like substance
7 | CC[C@H](C)[C@H](N)C(=O)O [Isoleucine, L(+)-isoleucine] | 700 mg | 0.25 h |  |  | 
8 | N[C@@H](Cc1c[nH]cn1)C(=O)O [Histidine, L-histidine] |  | 17.5 h | 700 mg |  | 
9 | C[C@H](N)C(=O)O [L-Alanine, L-alanine] | 700 mg | 5 h |  |  | 
10 | CC(C)[C@H](N)C(=O)O [Valine, L-valine] | 700 mg | 3 h |  |  | 

From patent US20190030166A1, “PERCUTANEOUSLY ABSORBABLE COMPOSITION CONTROLLED IN RELEASE OF WATER-SOLUBLE EFFECTIVE INGREDIENT” (NISSAN CHEMICAL CORPORATION, priority 2016, published 2019)
